The values that follow come from patent publication US20160166560A1, “Urea Compounds and Their Use as FAAH Enzyme Inhibitors” (BIAL-PORTELA & Cª, S.A., priority 2013, published 2016).

One series deals with CYPs. Nature of the series: CYPs metabolic stability assay in HLM (human liver microsomes). Type of series: in vitro ADME. The note with it: HLM 1 mg/ml protein, compound 5 μM, 60 min, 37° C.; for Control (% remain): absence of NADPH; for CYP+ (% remain): with NADPH 1 mM. A digest of the protocol: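 Test compound at 5 μM incubated 60 min at 37 °C with HLM (1 mg/ml protein) in 50 mM K-phosphate buffer, 5 mM MgCl2, with and without 1 mM NADPH, after 5 min pre-incubation. Reaction stopped with acetonitrile, added before compound at T0; remaining compound measured by HPLC-MS, duplicates.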

A short description of series [1]: Solubility assay in purified water. Type of series: physicochemical. Particulars: pH 5.7, thermodynamic from solid; purified water pH=5.6-5.8, stirring 2 h, room temperature, HPLC. On the procedure: A saturated solution was prepared by adding the test compound in excess to 1 mL of purified water (pH=5.6-5.8) followed by stirring of the mixture for 2 h at room temperature. Thereupon, the un-dissolved material was removed by filtration and the amount of test compound in the filtrate was quantified by HPLC using a calibration curve.

In series [2] the target is T1, FAAH (Mus musculus, UniProt O08914).
T1 sequence (O08914 1-579): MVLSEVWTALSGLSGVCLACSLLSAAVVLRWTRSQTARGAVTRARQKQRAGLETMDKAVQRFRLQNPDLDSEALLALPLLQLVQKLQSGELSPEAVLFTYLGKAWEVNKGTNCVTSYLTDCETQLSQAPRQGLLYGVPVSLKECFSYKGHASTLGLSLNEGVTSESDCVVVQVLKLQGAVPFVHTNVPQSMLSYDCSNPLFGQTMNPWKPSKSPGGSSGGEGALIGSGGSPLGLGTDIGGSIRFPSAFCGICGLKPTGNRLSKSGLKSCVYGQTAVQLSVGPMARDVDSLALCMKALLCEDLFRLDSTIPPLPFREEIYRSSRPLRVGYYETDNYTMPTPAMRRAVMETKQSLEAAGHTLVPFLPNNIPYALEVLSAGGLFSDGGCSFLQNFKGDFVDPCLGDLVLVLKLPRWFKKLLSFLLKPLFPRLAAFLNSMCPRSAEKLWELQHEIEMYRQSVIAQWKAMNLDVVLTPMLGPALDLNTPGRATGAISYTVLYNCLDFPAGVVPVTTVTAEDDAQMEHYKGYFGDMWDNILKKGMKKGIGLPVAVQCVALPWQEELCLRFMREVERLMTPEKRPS
Nature of the series: In vitro/ex vivo FAAH activity determination in liver after intra-tracheal instillation. On the set-up: Liver and brain fragments were removed and processed for enzymatic activity determination; from tissue; host or cells: mouse liver fragment homogenate; species or system male NMRI mice. The note with it: remaining enzymatic activity vs controls, 1 mg/kg intra-tracheal instillation, sacrificed after 8 h.

Series [3] concerns the target T1, FAAH. Put plainly: In vitro/ex vivo FAAH activity determination in brain after intra-tracheal instillation. On the set-up: Liver and brain fragments were removed and processed for enzymatic activity determination; from tissue; species or system male NMRI mice. Particulars: remaining enzymatic activity vs controls, 1 mg/kg intra-tracheal instillation, sacrificed after 8 h. A digest of the protocol:
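Male NMRI mice dosed 1 mg/kg by intra-tracheal instillation under anaesthesia; brain and liver taken at 8 h. Homogenates (15 μg brain, 5 μg liver protein) pre-incubated 15 min at 37 °C, then 12 min with 2 μM [3H]-AEA, pH 7.6; 3H-ethanolamine counted, activity as % of controls.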

Counter-ions that a name gives are not always drawn.

Regarding `COc1cccc(CN2CCC(N(C)C(=O)n3cnc(-c4cccc(NC(N)=O)c4)c3)CC2)c1.Cl` [Example 17, N-(1-(3-methoxybenzyl)piperidin-4-yl)-N-methyl-4-(3-ureidophenyl)-1 H-imidazole-1-carboxamide hydrochloride], in the series with CYPs, the “Control (% remain)” value was determined as 103.4 % remain and the “CYP+ (% remain)” value was found to be 21.4 % remain. The solubility – broadly, the dissolved amount per volume that the medium holds – at 2 h in series [1] worked out at 14.1 mg/mL. For the same molecule, the “FAAH Activity - Liver itc (% C)” value on FAAH [2] was determined as 4.2 % C. Also, the “FAAH Activity - Brain itc (% C)” value on FAAH [3] turned out to be 91.9 % C.
In the same order, the values of `COc1ccc(CN2CCC(N(C)C(=O)n3cnc(-c4cccc(C(N)=O)c4)c3)CC2)cc1` [Example 33, 4-(3-carbamoylphenyl)-N-(1-(4-methoxybenzyl)piperidin-4-yl)-N-methyl-1H-imidazole-1-carboxamide hydrochloride] are 112.2 % remain, 70.4 % remain, greater than 14.9 mg/mL, 3.4 % C and 102 % C.
As for `COc1ccccc1N1CCC(N(C)C(=O)n2cnc(-c3cccc(C(N)=O)c3)c2)CC1` [Example 34, 4-(3-carbamoylphenyl)-N-(1-(2-methoxyphenyl)piperidin-4-yl)-N-methyl-1 H-imidazole-1-carboxamide hydrochloride], in the series with CYPs, the “Control (% remain)” value is listed as 105.4 % remain and the “CYP+ (% remain)” value was determined as 9.1 % remain. In series [1], the solubility at 2 h is greater than 14.7 mg/mL. Moreover, at FAAH [2], the “FAAH Activity - Liver itc (% C)” value is on record as 3.3 % C. Also, the “FAAH Activity - Brain itc (% C)” value on FAAH [3] is 78.7 % C.
In the same order, the values of `CN(C(=O)n1cnc(-c2cccc(C(N)=O)c2)c1)C1CCN(c2ccc(O)cc2)CC1` [Example 35, 4-(3-carbamoylphenyl)-N-(1-(4-hydroxyphenyl)piperidin-4-yl)-N-methyl-1H-imidazole-1-carboxamide hydrochloride] are 73.8 % remain, 81.0 % remain, 10.2 mg/mL, 4.3 % C and 96.6 % C.
